Laboratory results taken from patent US8778935B2 (Centro Nacional de Investigaciones Oncologicas (CNIO), priority 2009, dated 2014).

molecular target: T1, PI3K (p110α/p85α) (Homo sapiens, UniProt P42336); experiment: PI3K Activity Assay (ADP Hunter Plus); type: biochemical; settings: PI3Kα activity, quantitative results; read-out: PI3Kα IC50
T1 construct: purchased Carna Biosciences 07CBS-0402A
Protocol: The kinase activity was measured by using the commercial ADP Hunter™ Plus assay available from DiscoveRx (#33-016), which is a homogeneous assay to measure the accumulation of ADP, a universal product of kinase activity. […] Reaction was carried out for 1 hour at 25° C. Reagent A and B were sequentially added to the wells and plates were incubated for 30 min at 37° C. […] Values were normalized against the control activity included for each enzyme (i.e., 100% PI3 kinase activity, without compound). These values were plot against the inhibitor concentration and were fit to a sigmoid dose-response curve by using the Graphad software.

T1 sequence (P42336 whole entry): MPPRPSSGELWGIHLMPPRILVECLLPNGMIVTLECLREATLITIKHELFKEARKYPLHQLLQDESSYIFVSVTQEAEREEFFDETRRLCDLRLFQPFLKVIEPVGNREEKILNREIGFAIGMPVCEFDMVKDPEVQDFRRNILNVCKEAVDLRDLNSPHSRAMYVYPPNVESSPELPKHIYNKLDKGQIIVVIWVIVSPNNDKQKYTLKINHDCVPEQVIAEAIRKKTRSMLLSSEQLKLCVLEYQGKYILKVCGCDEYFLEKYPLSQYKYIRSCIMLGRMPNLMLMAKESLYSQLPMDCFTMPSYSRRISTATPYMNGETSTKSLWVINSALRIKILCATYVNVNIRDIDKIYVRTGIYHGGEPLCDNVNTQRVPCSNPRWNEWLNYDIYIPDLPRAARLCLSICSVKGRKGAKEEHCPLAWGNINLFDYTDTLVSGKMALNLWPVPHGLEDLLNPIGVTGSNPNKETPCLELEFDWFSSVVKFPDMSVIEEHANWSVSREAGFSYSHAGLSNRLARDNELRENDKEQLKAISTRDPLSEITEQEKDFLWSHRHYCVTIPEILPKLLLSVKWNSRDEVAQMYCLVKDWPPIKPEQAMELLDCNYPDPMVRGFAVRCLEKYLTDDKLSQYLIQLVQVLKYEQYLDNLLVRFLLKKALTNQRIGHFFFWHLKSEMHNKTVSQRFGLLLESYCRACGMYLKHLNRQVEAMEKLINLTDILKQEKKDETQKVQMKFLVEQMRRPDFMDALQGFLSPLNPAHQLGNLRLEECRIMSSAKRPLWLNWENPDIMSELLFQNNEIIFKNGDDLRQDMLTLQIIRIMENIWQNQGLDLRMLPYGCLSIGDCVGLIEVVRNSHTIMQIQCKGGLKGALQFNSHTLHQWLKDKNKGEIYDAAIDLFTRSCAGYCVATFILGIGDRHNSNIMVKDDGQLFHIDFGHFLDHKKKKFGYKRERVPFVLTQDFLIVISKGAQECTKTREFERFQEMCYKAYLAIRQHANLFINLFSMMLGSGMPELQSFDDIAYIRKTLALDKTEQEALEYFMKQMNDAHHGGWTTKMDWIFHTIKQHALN
T1 sequence (P27986 whole entry partner): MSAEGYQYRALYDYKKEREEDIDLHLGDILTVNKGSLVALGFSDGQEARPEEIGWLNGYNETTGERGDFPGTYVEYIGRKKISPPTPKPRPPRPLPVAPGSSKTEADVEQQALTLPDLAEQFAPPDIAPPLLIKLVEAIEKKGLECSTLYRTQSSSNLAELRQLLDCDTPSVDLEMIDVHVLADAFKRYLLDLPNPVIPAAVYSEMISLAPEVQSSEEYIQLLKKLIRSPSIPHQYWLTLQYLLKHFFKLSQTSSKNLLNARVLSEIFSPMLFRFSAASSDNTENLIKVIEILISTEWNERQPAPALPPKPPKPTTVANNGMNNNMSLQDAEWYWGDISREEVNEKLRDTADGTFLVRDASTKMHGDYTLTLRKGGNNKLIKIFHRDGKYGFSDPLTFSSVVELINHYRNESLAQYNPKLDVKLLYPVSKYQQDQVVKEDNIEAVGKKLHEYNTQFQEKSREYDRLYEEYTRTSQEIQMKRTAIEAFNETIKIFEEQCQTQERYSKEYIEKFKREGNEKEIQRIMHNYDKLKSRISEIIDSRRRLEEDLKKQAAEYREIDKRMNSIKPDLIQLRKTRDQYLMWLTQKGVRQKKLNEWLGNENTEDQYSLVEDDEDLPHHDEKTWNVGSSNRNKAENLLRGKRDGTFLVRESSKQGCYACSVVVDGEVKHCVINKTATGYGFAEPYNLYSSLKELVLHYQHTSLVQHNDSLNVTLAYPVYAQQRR

Compound | IC50 [µM]
CC(=O)O[C@H](C)C(=O)N1CCN(Cc2cn3cc(-c4cnc(N)nc4)nc(N4CCOCC4)c3n2)CC1 [2-231] | 0.085
Nc1ncc(-c2cn3cc(CN4CCNCC4)nc3c(N3CCOCC3)n2)cn1 [2-226] | 0.077

Second part, the molecule after the results:

IC50 [µM] | Compound
0.11 | Cc1cn2cc(-c3cnc(N)nc3)nc(N3CCOCC3)c2n1 [2-181]
6.09 | COC(=O)C1COCCN1c1nc(-c2cnc(N)nc2)cn2cc(C)nc12 (centres unmarked) [2-227]
0.016 | CC(C)(c1cn2cc(-c3cnc(N)nc3)nc(N3CCOCC3)c2n1)N1CCN(S(C)(=O)=O)CC1 [2-242]
0.028 | C[C@@H]1CN(C(=O)OC(C)(C)C)C[C@H](C)N1Cc1cn2cc(-c3cnc(N)nc3)nc(N3CCOCC3)c2n1 [2-218]
10 | COc1ccncc1-c1cn2cc(CN3CCN(S(C)(=O)=O)CC3)nc2c(N2CCOCC2)n1 [2-204]

same assay, conditions: quantitative results of Table 4; read-out: PI3Kα IC50

Compound | IC50 [µM]
CS(=O)(=O)N1CCC2(CC1)CN(Cc1cn3cc(-c4cnc(N)nc4)nc(N4CCOCC4)c3n1)C2 [2-169] | 0.11
NC(=O)c1cn2cc(-c3cnc(N)nc3)nc(N3CCCCC3)c2n1 [2-120] | 1.3
COc1ccc(-c2nc(N3CCOCC3)c3nc(CN4CCN(S(C)(=O)=O)CC4)cn3c2Cl)cn1 [2-109] | 1
CS(=O)(=O)N1CCC2(CCN(Cc3cn4cc(-c5cccc6[nH]ncc56)nc(N5CCOCC5)c4n3)CC2)CC1 [2-149] | 1.3
CS(=O)(=O)N1CCC2(CC1)CN(Cc1cn3cc(-c4cccc5[nH]ncc45)nc(N4CCOCC4)c3n1)C2 [2-150] | 2.8
c1cc(-c2cn3cc(CN4CCC5(CCNCC5)CC4)nc3c(N3CCOCC3)n2)c2cn[nH]c2c1 [2-111] | 0.813
NC(=O)c1cn2c(Cl)c(-c3c(F)ccc4[nH]cc(Cl)c34)nc(N3CCOCC3)c2n1 [2-106] | 28
NC(=O)c1cn2cc(-c3c(F)ccc4[nH]ccc34)nc(N3CCOCC3)c2n1 [2-95] | 0.891

Further lines, results first:

IC50 [µM] | Compound
6 | CS(=O)(=O)N1CCN(Cc2cn3cc(-c4cn[nH]c4)nc(N4CCOCC4)c3n2)CC1 [2-90]
0.776 | CC(=O)NCCNC(=O)c1cn2cc(-c3cccc4[nH]ncc34)nc(N3CCOCC3)c2n1 [2-157]
93 | NC(=O)c1cn2c(Cl)c(-c3cccc4[nH]cc(Cl)c34)nc(N3CCOCC3)c2n1 [2-104]
0.065 | CN(C)CCNC(=O)c1cn2cc(-c3cccc4[nH]ncc34)nc(N3CCOCC3)c2n1 [2-141]
5.2 | CS(=O)(=O)N1CCC2(CCN(Cc3cn4cc(-c5cccc6[nH]ncc56)nc(N5CCOCC5)c4n3)CC2)C1 [2-134]
0.832 | CN(C)CCNC(=O)c1cn2cc(-c3cccnc3)nc(N3CCOCC3)c2n1 [2-147]
0.355 | O=C(c1cn2cc(-c3cccc4[nH]ncc34)nc(N3CCOCC3)c2n1)N1CCCC1 [2-87]
0.851 | c1cc(-c2cn3cc(CN4CC5CNCC5C4)nc3c(N3CCOCC3)n2)c2cn[nH]c2c1 (centres unmarked) [2-117]
1.8 | Cc1cn2cc(-c3cnc(N)nc3)nc(-c3ccncc3)c2n1 [2-166]
14 | O=C1CC2(CCN(Cc3cn4cc(-c5cccc6[nH]ncc56)nc(N5CCOCC5)c4n3)CC2)CN1 [2-131]
50 | CS(=O)(=O)N1CCN(Cc2cn3cc(-c4c(F)ccc5[nH]cc(Cl)c45)nc(N4CCOCC4)c3n2)CC1 [2-122]
7.9 | CC(C)(C)OC(=O)N1CC2CN(Cc3cn4cc(-c5cccc6[nH]ncc56)nc(N5CCOCC5)c4n3)CC2C1 (centres unmarked) [2-99]
1.4 | O=C1NCCC12CCN(Cc1cn3cc(-c4cccc5[nH]ncc45)nc(N4CCOCC4)c3n1)CC2 [2-130]

same assay, conditions: quantitative results; read-out: PI3Kα IC50

Compound | IC50 [µM]
Cc1cn2cc(-c3cccc(NS(C)(=O)=O)c3)nc(N3CCOCC3)c2n1 [2-28] | 50
CC(=O)N1CCN(Cc2cn3cc(-c4cccc(O)c4)nc(N4CCOCC4)c3n2)CC1 [2-06, 1-(4-((6-(3-hydroxyphenyl)-8-morpholinoimidazo[1,2-a]pyrazin-2-yl)methyl)-piperazin-1-yl)ethanone] | 0.451
Cc1cn2c(Br)c(-c3cccc4[nH]ncc34)nc(N3CCOCC3)c2n1 [2-55, 5-bromo-6-(1H-indazol-4-yl)-2-methyl-8-morpholinoimidazo[1,2-a]pyrazine] | 12
Oc1cccc(-c2cn3cc(C4CC4)nc3c(N3CCOCC3)n2)c1 [2-14, 3-(2-cyclopropyl-8-morpholinoimidazo[1,2-a]pyrazin-6-yl)phenol] | 0.34
O=C1CN(Cc2cn3cc(-c4cccc(O)c4)nc(N4CCOCC4)c3n2)CCN1 [2-08, 4-((6-(3-hydroxyphenyl)-8-morpholinoimidazo[1,2-a]pyrazin-2-yl)methyl)piperazin-2-one] | 0.54
CCOC(=O)c1cn2cc(-c3cccc4[nH]ncc34)nc(N3CCOCC3)c2n1 [2-52, ethyl 6-(1H-indazol-4-yl)-8-morpholinoimidazo[1,2-a]pyrazine-2-carboxylate] | 0.676
CS(=O)(=O)N1CCN(C(=O)c2cn3cc(-c4cccc(O)c4)nc(N4CCOCC4)c3n2)CC1 [2-11, (6-(3-hydroxyphenyl)-8-morpholinoimidazo[1,2-a]pyrazin-2-yl)(4-sulfonylmethyl-piperazin-1-yl)methanone] | 0.044
CNC(=O)Nc1ccc(-c2cn3cc(C)nc3c(N3CCOCC3)n2)cc1 [2-29, 1-methyl-3-(4-(2-methyl-8-morpholinoimidazo[1,2-a]pyrazin-6-yl)phenyl)urea] | 3
CC(=O)Nc1ccc(-c2cn3cc(CN4CCN(S(C)(=O)=O)CC4)nc3c(N3CCOCC3)n2)cn1 [2-81] | 0.21
Cc1cn2cc(-c3cccc4[nH]ncc34)nc(N3CCOCC3)c2n1 [2-24, 6-(1H-indazol-4-yl)-2-methyl-8-morpholinoimidazo[1,2-a]pyrazine] | 2.6
Cc1nc2c(N3CCOCC3)nc(-c3cccc4[nH]ncc34)cn2c1C1=CCNCC1 [2-44, 3-(1,2,3,6-tetrahydropyridin-4-yl)-6-(1H-indazol-4-yl)-2-methyl-8-morpholino-imidazo[1,2-a]pyrazine] | 0.731
OCc1cn2cc(-c3cccc(O)c3)nc(N3CCOCC3)c2n1 [2-04, 3-(2-(hydroxymethyl)-8-morpholinoimidazo[1,2-a]pyrazin-6-yl)phenol] | 0.639
COc1cncc(-c2cn3cc(C)nc3c(N3CCOCC3)n2)c1 [2-27, 6-(5-methoxypyridin-3-yl)-2-methyl-8-morpholinoimidazo[1,2-a]pyrazine] | 3.9

Results, then the molecule that gave them:

IC50 [µM] | Compound
0.438 | c1cc(-c2cn3cc(C4CC4)nc3c(N3CCOCC3)n2)c2cn[nH]c2c1 [2-19, 2-cyclopropyl-6-(1H-indazol-4-yl)-8-morpholinoimidazo[1,2-a]pyrazine]
10 | Cc1cn2cc(-c3cccnc3)nc(N3CCOCC3)c2n1 [2-26, 2-methyl-8-morpholino-6-(pyridin-3-yl)imidazo[1,2-a]pyrazine]
10 | O=Cc1cn2cc(-c3cccc(O)c3)nc(N3CCOCC3)c2n1 [2-03, 6-(3-hydroxyphenyl)-8-morpholinoimidazo[1,2-a]pyrazine-2-carbaldehyde]
0.618 | N#Cc1cn2cc(-c3cccc4[nH]ncc34)nc(N3CCOCC3)c2n1 [2-22, 6-(1H-indazol-4-yl)-8-morpholinoimidazo[1,2-a]pyrazine-2-carbonitrile]
0.741 | CN1CCN(C(=O)c2cn3cc(-c4cccc5[nH]ncc45)nc(N4CCOCC4)c3n2)CC1 [2-15, (6-(1H-indazol-4-yl)-8-morpholinoimidazo[1,2-a]pyrazin-2-yl)(4-methylpiperazin-1-yl)methanone]

same assay, conditions: semi-quantitative results; read-out: PI3Kα IC50 (semi-quantitative class)

Compound | IC50 [µM]
CC(=O)N1CCN(Cc2cn3cc(-c4cccc(O)c4)nc(N4CCOCC4)c3n2)CC1 [2-06, 1-(4-((6-(3-hydroxyphenyl)-8-morpholinoimidazo[1,2-a]pyrazin-2-yl)methyl)-piperazin-1-yl)ethanone] | 0.1 to 1
Oc1cccc(-c2cn3cc(C4CC4)nc3c(N3CCOCC3)n2)c1 [2-14, 3-(2-cyclopropyl-8-morpholinoimidazo[1,2-a]pyrazin-6-yl)phenol] | 0.1 to 1
O=C1CN(Cc2cn3cc(-c4cccc(O)c4)nc(N4CCOCC4)c3n2)CCN1 [2-08, 4-((6-(3-hydroxyphenyl)-8-morpholinoimidazo[1,2-a]pyrazin-2-yl)methyl)piperazin-2-one] | 0.1 to 1
Oc1cccc(-c2cn3c(N4CCNCC4)cnc3c(N3CCOCC3)n2)c1 [2-40, 3-(8-morpholino-3-(piperazin-1-yl)imidazo[1,2-a]pyrazin-6-yl)phenol] | 0.1 to 1
Cc1cn2cc(-c3cccc4[nH]ncc34)nc(N3CCOCC3)c2n1 [2-24, 6-(1H-indazol-4-yl)-2-methyl-8-morpholinoimidazo[1,2-a]pyrazine] | > 1
Cc1nc2c(N3CCOCC3)nc(-c3cccc4[nH]ncc34)cn2c1C1=CCNCC1 [2-44, 3-(1,2,3,6-tetrahydropyridin-4-yl)-6-(1H-indazol-4-yl)-2-methyl-8-morpholino-imidazo[1,2-a]pyrazine] | 0.1 to 1
Cc1cn2c(Cl)c(-c3cccc(O)c3)nc(N3CCOCC3)c2n1 [2-49, 3-(5-chloro-2-methyl-8-morpholinoimidazo[1,2-a]pyrazin-6-yl)phenol] | 0.1 to 1
OCc1cn2cc(-c3cccc(O)c3)nc(N3CCOCC3)c2n1 [2-04, 3-(2-(hydroxymethyl)-8-morpholinoimidazo[1,2-a]pyrazin-6-yl)phenol] | 0.1 to 1
COc1cncc(-c2cn3cc(C)nc3c(N3CCOCC3)n2)c1 [2-27, 6-(5-methoxypyridin-3-yl)-2-methyl-8-morpholinoimidazo[1,2-a]pyrazine] | > 1

Next, values leading:

IC50 [µM] | Compound
0.1 to 1 | CS(=O)(=O)N1CCN(Cc2cn3c(Cl)c(-c4cccc5[nH]ncc45)nc(N4CCOCC4)c3n2)CC1 [2-60, 5-chloro-6-(1H-indazol-4-yl)-8-morpholino-2-((4-sulfonylmethylpiperazin-1-yl)-methyl)imidazo[1,2-a]pyrazine]
0.1 to 1 | CN1CCN(c2cnc3c(N4CCOCC4)nc(-c4cccc5[nH]ncc45)cn23)CC1 [2-38, 6-(1H-indazol-4-yl)-3-(4-methylpiperazin-1-yl)-8-morpholinoimidazo[1,2-a]-pyrazine]
0.1 to 1 | N#Cc1cn2cc(-c3cccc4[nH]ncc34)nc(N3CCOCC3)c2n1 [2-22, 6-(1H-indazol-4-yl)-8-morpholinoimidazo[1,2-a]pyrazine-2-carbonitrile]
0.1 to 1 | CN1CCN(C(=O)c2cn3cc(-c4cccc5[nH]ncc45)nc(N4CCOCC4)c3n2)CC1 [2-15, (6-(1H-indazol-4-yl)-8-morpholinoimidazo[1,2-a]pyrazin-2-yl)(4-methylpiperazin-1-yl)methanone]
